Source: patent US20150181873A1, “HERBICIDE-RESISTANT SUNFLOWER PLANTS, POLYNUCLEOTIDES ENCODING HERBICIDE=RESISTANT ACETO HYDROXY ACID SYNTHASE LARGE SUBUNIT PROTEINS, AND METHODS OF USE” (NIDERA S.A., priority 2013, published 2015)

How the values were obtained:
Format in all cases: in vivo, Helianthus annuus
[1] = tested on: sunflower line GIM 5-7 (A205V); assay: Greenhouse imazapir dose response, GIM 5-7; conditions: GIM5-7 (A205V), 14 DAT
Procedure: (§1) A greenhouse study was conducted to quantify and contrast the imazapir sensivity of the mutants A122T and A205V in different genetic backgrounds at the whole plant level in sunflower. Seeds of the different sunflower lines that were used in this study were obtained under field conditions.
(§2) Seeds were sown in Petri dishes and, after germination, plantlets were transplanted to pots of 10 cm of diameter in a potting media consisting of equal parts of vermiculite, soil and sand. Plants were grown in a greenhouse under natural light conditions supplemented with 400 W sodium halide lamps to provide a 16 hrs daylength. Day/night temperatures were 25 and 20° C., respectively. At the V2 stage 10 plants of each genotype were randomly assigned to each treatment consisting of […] imazapir doses (0, 40, 80, 160, 240, 320, 400 and 480 g ai/ha), and a zero-time biomass determination. Experiment was arranged as a randomized block design with a full factorial (sunflower line×treatment) arrangement of treatments and 10 replications.
(§3) On the day of herbicide application ten plants of each genotype were cut at the cotyledonal node and dried at 60° C. for 48 hrs zero-time for dried weight determination. […] Height was determined as the distance between the cotyledonal node and the apex of each plant. For root biomass determination, each plant was taken from the pot and the potting media was washed out from the roots. Above ground biomass data from each line were converted to biomass accumulation after application by subtracting the appropriate average zero-time biomass from each sample. Dry biomass data were converted to percentages of the untreated control plants within each line to allow direct comparisons between groups.

[2] = tested on: sunflower restorer line IR79 (A205V); assay: Greenhouse imazapir dose response, IR79; conditions: 14 DAT
Procedure: as §1, §2, §3

[3] = tested on: sunflower hybrid TH6 (A122T); assay: Greenhouse imazapir dose response, TH6; conditions: 14 DAT
Procedure: as §1, §2, §3

[4] = tested on: sunflower line GM40 (A122T); assay: Greenhouse imazapir dose response, GM40; conditions: 14 DAT
Procedure: as §1, §2, §3

[5] = tested on: sunflower line GM1606 (A122T); assay: Greenhouse imazapir dose response, GM1606; conditions: 14 DAT
Procedure: as §1, §2, §3

CC(C)C1(C)N=C(c2ncccc2C(=O)O)NC1=O (stereo not shown) [Imazapyr, imazapyr]
biomass accumulation, % of untreated ([1]; 0.5x (40 g ai/ha)): 92.9%
plant height, % of untreated ([1]; 0.5x (40 g ai/ha)): 79.1%
root dry weight, % of untreated ([1]; 0.5x (40 g ai/ha)): 79.2%
biomass accumulation, % of untreated ([1]; 1x (80 g ai/ha)): 75.1%
plant height, % of untreated ([1]; 1x (80 g ai/ha)): 76.7%
root dry weight, % of untreated ([1]; 1x (80 g ai/ha)): 56.3%
biomass accumulation, % of untreated ([1]; 2x (160 g ai/ha)): 55.1%
plant height, % of untreated ([1]; 2x (160 g ai/ha)): 57.7%
root dry weight, % of untreated ([1]; 2x (160 g ai/ha)): 40.6%
biomass accumulation, % of untreated ([1]; 3x (240 g ai/ha)): 45.6%
plant height, % of untreated ([1]; 3x (240 g ai/ha)): 55.3%
root dry weight, % of untreated ([1]; 3x (240 g ai/ha)): 40.2%
biomass accumulation, % of untreated ([1]; 4x (320 g ai/ha)): 31.8%
plant height, % of untreated ([1]; 4x (320 g ai/ha)): 27.3%
root dry weight, % of untreated ([1]; 4x (320 g ai/ha)): 34.0%
biomass accumulation, % of untreated ([1]; 5x (400 g ai/ha)): 34.2%
plant height, % of untreated ([1]; 5x (400 g ai/ha)): 37.2%
root dry weight, % of untreated ([1]; 5x (400 g ai/ha)): 48.5%
biomass accumulation, % of untreated ([1]; 6x (480 g ai/ha)): 36.8%
plant height, % of untreated ([1]; 6x (480 g ai/ha)): 30.0%
root dry weight, % of untreated ([1]; 6x (480 g ai/ha)): 43.1%
biomass accumulation, % of untreated ([2]; 0.5x (40 g ai/ha)): 94.4%
plant height, % of untreated ([2]; 0.5x (40 g ai/ha)): 92.8%
root dry weight, % of untreated ([2]; 0.5x (40 g ai/ha)): 98.6%
biomass accumulation, % of untreated ([2]; 1x (80 g ai/ha)): 74.0%
plant height, % of untreated ([2]; 1x (80 g ai/ha)): 80.9%
root dry weight, % of untreated ([2]; 1x (80 g ai/ha)): 53.4%
biomass accumulation, % of untreated ([2]; 2x (160 g ai/ha)): 67.7%
plant height, % of untreated ([2]; 2x (160 g ai/ha)): 74.9%
root dry weight, % of untreated ([2]; 2x (160 g ai/ha)): 42.5%
biomass accumulation, % of untreated ([2]; 3x (240 g ai/ha)): 49.1%
plant height, % of untreated ([2]; 3x (240 g ai/ha)): 55.7%
root dry weight, % of untreated ([2]; 3x (240 g ai/ha)): 38.4%
biomass accumulation, % of untreated ([2]; 4x (320 g ai/ha)): 44.5%
plant height, % of untreated ([2]; 4x (320 g ai/ha)): 52.8%
root dry weight, % of untreated ([2]; 4x (320 g ai/ha)): 31.5%
biomass accumulation, % of untreated ([2]; 5x (400 g ai/ha)): 40.1%
plant height, % of untreated ([2]; 5x (400 g ai/ha)): 41.7%
root dry weight, % of untreated ([2]; 5x (400 g ai/ha)): 23.3%
biomass accumulation, % of untreated ([2]; 6x (480 g ai/ha)): 35.3%
plant height, % of untreated ([2]; 6x (480 g ai/ha)): 33.2%
root dry weight, % of untreated ([2]; 6x (480 g ai/ha)): 21.9%
Phytotoxicity Index ([3]; 0.5x (40 g ai/ha)): 0.5
biomass accumulation, % of untreated ([3]; 0.5x (40 g ai/ha)): 100%
plant height, % of untreated ([3]; 0.5x (40 g ai/ha)): 99.2%
root dry weight, % of untreated ([3]; 0.5x (40 g ai/ha)): 100%
Phytotoxicity Index ([3]; 1x (80 g ai/ha)): 0.5
biomass accumulation, % of untreated ([3]; 1x (80 g ai/ha)): 97.2%
plant height, % of untreated ([3]; 1x (80 g ai/ha)): 98.6%
root dry weight, % of untreated ([3]; 1x (80 g ai/ha)): 98.1%
Phytotoxicity Index ([3]; 2x (160 g ai/ha)): 0.5
biomass accumulation, % of untreated ([3]; 2x (160 g ai/ha)): 97.9%
plant height, % of untreated ([3]; 2x (160 g ai/ha)): 100.3%
root dry weight, % of untreated ([3]; 2x (160 g ai/ha)): 96.2%
Phytotoxicity Index ([3]; 3x (240 g ai/ha)): 0.5
biomass accumulation, % of untreated ([3]; 3x (240 g ai/ha)): 98.2%
plant height, % of untreated ([3]; 3x (240 g ai/ha)): 99.6%
root dry weight, % of untreated ([3]; 3x (240 g ai/ha)): 79.3%
Phytotoxicity Index ([3]; 4x (320 g ai/ha)): 0.5
biomass accumulation, % of untreated ([3]; 4x (320 g ai/ha)): 97.8%
plant height, % of untreated ([3]; 4x (320 g ai/ha)): 101.0%
root dry weight, % of untreated ([3]; 4x (320 g ai/ha)): 78.4%
Phytotoxicity Index ([3]; 5x (400 g ai/ha)): 0.5
biomass accumulation, % of untreated ([3]; 5x (400 g ai/ha)): 85.1%
plant height, % of untreated ([3]; 5x (400 g ai/ha)): 87.0%
root dry weight, % of untreated ([3]; 5x (400 g ai/ha)): 85.8%
Phytotoxicity Index ([3]; 6x (480 g ai/ha)): 0.5
biomass accumulation, % of untreated ([3]; 6x (480 g ai/ha)): 79.5%
plant height, % of untreated ([3]; 6x (480 g ai/ha)): 79.6%
root dry weight, % of untreated ([3]; 6x (480 g ai/ha)): 57.3%
biomass accumulation, % of untreated ([4]; 0.5x (40 g ai/ha)): 96.5%
plant height, % of untreated ([4]; 0.5x (40 g ai/ha)): 99.6%
root dry weight, % of untreated ([4]; 0.5x (40 g ai/ha)): 100%
biomass accumulation, % of untreated ([4]; 1x (80 g ai/ha)): 94.1%
plant height, % of untreated ([4]; 1x (80 g ai/ha)): 97.4%
root dry weight, % of untreated ([4]; 1x (80 g ai/ha)): 100%
biomass accumulation, % of untreated ([4]; 2x (160 g ai/ha)): 97.6%
plant height, % of untreated ([4]; 2x (160 g ai/ha)): 95.2%
root dry weight, % of untreated ([4]; 2x (160 g ai/ha)): 100%
biomass accumulation, % of untreated ([4]; 3x (240 g ai/ha)): 95.8%
plant height, % of untreated ([4]; 3x (240 g ai/ha)): 93.0%
root dry weight, % of untreated ([4]; 3x (240 g ai/ha)): 92.2%
biomass accumulation, % of untreated ([4]; 4x (320 g ai/ha)): 88.3%
plant height, % of untreated ([4]; 4x (320 g ai/ha)): 93.0%
root dry weight, % of untreated ([4]; 4x (320 g ai/ha)): 96.1%
biomass accumulation, % of untreated ([4]; 5x (400 g ai/ha)): 85.6%
plant height, % of untreated ([4]; 5x (400 g ai/ha)): 93.9%
root dry weight, % of untreated ([4]; 5x (400 g ai/ha)): 84.2%
biomass accumulation, % of untreated ([4]; 6x (480 g ai/ha)): 76.8%
plant height, % of untreated ([4]; 6x (480 g ai/ha)): 84.3%
root dry weight, % of untreated ([4]; 6x (480 g ai/ha)): 74.3%
biomass accumulation, % of untreated ([5]; 0.5x (40 g ai/ha)): 100.0%
plant height, % of untreated ([5]; 0.5x (40 g ai/ha)): 97.0%
root dry weight, % of untreated ([5]; 0.5x (40 g ai/ha)): 100%
biomass accumulation, % of untreated ([5]; 1x (80 g ai/ha)): 100.0%
plant height, % of untreated ([5]; 1x (80 g ai/ha)): 95.7%
root dry weight, % of untreated ([5]; 1x (80 g ai/ha)): 100.0%
biomass accumulation, % of untreated ([5]; 2x (160 g ai/ha)): 97.6%
plant height, % of untreated ([5]; 2x (160 g ai/ha)): 95.2%
root dry weight, % of untreated ([5]; 2x (160 g ai/ha)): 92.5%
biomass accumulation, % of untreated ([5]; 3x (240 g ai/ha)): 95.4%
plant height, % of untreated ([5]; 3x (240 g ai/ha)): 95.7%
root dry weight, % of untreated ([5]; 3x (240 g ai/ha)): 85.2%
biomass accumulation, % of untreated ([5]; 4x (320 g ai/ha)): 90.5%
plant height, % of untreated ([5]; 4x (320 g ai/ha)): 94.1%
root dry weight, % of untreated ([5]; 4x (320 g ai/ha)): 87.0%
biomass accumulation, % of untreated ([5]; 5x (400 g ai/ha)): 85.3%
plant height, % of untreated ([5]; 5x (400 g ai/ha)): 94.3%
root dry weight, % of untreated ([5]; 5x (400 g ai/ha)): 88.1%
biomass accumulation, % of untreated ([5]; 6x (480 g ai/ha)): 83.0%
plant height, % of untreated ([5]; 6x (480 g ai/ha)): 91.4%
root dry weight, % of untreated ([5]; 6x (480 g ai/ha)): 69.5%
